{"source": "patent US9809562B2", "about": "“NAT10 modulators for treating or preventing laminopathies, aging and cancer” (CAMBRIDGE ENTERPRISE LIMITED, priority 2014, dated 2017)", "key": {"[1]": {"system": "normal human fibroblasts", "experiment": "Nuclear shape of normal fibroblasts, with or without FTI", "type": "cell-based", "source_text": "FIG. 11: Remodelin prevents FTI induced nuclear shape defects in non-progeric cells. A) Analysis of Lamin A/C processing after Remodelin or FTI treatment, showing that Remodelin is not a FTI. B) Representative pictures of Lamin A/C IF staining after the indicated treatments. Arrows indicate FTI induced misshapen nuclei in normal fibroblasts. Scale bar: 50 μm. C) Quantification of misshapen nuclei with the indicated cell lines and inhibitor treatments (means of three independent experiments±s.e.m. n>178). D) Representative pictures of DAPI staining showing effects of FTI and Remodelin on nuclear shape of U2OS cells. Scale bars: 20 μm.\nU2OS and SaOS-2 osteosarcoma cells, HeLa cervical cancer cells, A431 melanoma cells, NCI-SNU5 gastric cancer cells, MRC-5 lung fibroblast cells and Werner syndrome patient-derived SV40 fibroblast cells were grown in Dulbecco's modified Eagle medium (DMEM, Sigma-Aldrich) supplemented with 10% fetal bovine serum (BioSera), 2 mM L-glutamine, 100 U per ml penicillin, 100 μg ml^−1 streptomycin. […] Cells were analysed 48 to 72 hours after transfection.\nThe following KAT and KDAC inhibitors were used in the nuclear shape rescue screen, incubating cells with the molecules for 16 hours: trichostatin A (1 μM), sodium butyrate (5 mM), tubacin (10 μM), SAHA (5 μM), curcumin (10 μM), garcinol (50 μM), anacardic acid (1 μM), MB-3 (5 μM), 4-(4-chlorophenyl)-2-(2-cyclopentylidenehydrazinyl)thiazole (Compound 2) (50 μM), 4-(4-chlorophenyl)-2-(2-cyclopentylidene-1-(prop-2-yn-1-yl)hydrazinyl)thiazole (Compound 3) (50 μM) and cyclopentylidene-[4-(4-cyanophenyl)thiazol-2-yl)hydrazine (Compound 1) (Remodelin) (10 to 50 μM). […] Senescence was assessed after 8 days of Remodelin treatment when cells were at Population Doubling 12, and then after several weeks of Remodelin treatment, when cells reached Population Doubling 24 using the Senescence β-Galactosidase Staining Kit #9860 from Cell Signaling. […]"}, "[2]": {"system": "microtubule network of cells", "experiment": "Microtubule network by immunofluorescence of α-Tubulin", "type": "cell-based", "method": "Cells were washed with PBS and fixed for 20 minutes with 2% PFA in PBS. Cells were permeabilised for 5 minutes with PBS/0.2% Triton X-100, and blocked with PBS/0.2% Tween 20 (PBS-T) containing 5% BSA. Coverslips were incubated for 1 hour with primary antibodies and for 30 minutes with appropriate secondary antibodies coupled to Alexa Fluor 488 or 594 fluorophores (Life Technologies), before being incubated with 2 μg/ml DAPI. Pictures were acquired with a FluoView 1000 confocal microscope (Olympus). For high resolution imaging, z-stacks were acquired with a Deltavision PersonalDV (Applied Precision, 1024×1024 CoolSNAP HQ2 camera, z-stack of 0.2 μm interval) or with a Deltavision OMX V3 in conventional mode (Applied Precision, 512×512 Cascade II cameras (Photometrics), z-stack of 0.125 μm interval) both equipped with a 100× UPlanSApo/1.40 oil objective (Olympus) and controlled with SoftWoRx software (Applied Precision). Deconvolutions were then performed with SoftWoRx (Applied Precision) in conservative mode. The different channels were acquired sequentially."}, "[3]": {"system": "prostate 22RV1 cancer cells", "experiment": "Matrigel invasion assay", "type": "cell-based, human", "details": "50 μM", "method": "FIG. 15: Compound 2 inhibits the proliferation, migration and invasion of cancer cells with low Lamin A/C expression. […] C) Quantification of transwell migration assays and matrigel invasion assays from the indicated low expressing cancer cell lines after treatment with 50 μM of compound 2."}, "[4]": {"system": "HGPS mice (Lmna^G609G/G609G)", "experiment": "Survival in mouse model of Hutchinson Gilford progeria syndrome", "type": "in vivo", "details": "daily oral dose of 100 mg/kg/day from 3 weeks of age, vs vector only, n=10", "method": "Middle panel of FIG. 25: HGPS mice were treated with a daily oral dose of 100 mg/kg/day of Compound 2 from 3 weeks of age and until culled due to >20% body weight loss. […] Right panel of FIG. 25: Global survival of HGPS mice (Lmna^G609G/G609G) treated with vector only (Lmna^G609G/G609G V) or with Compound 2 (Lmna^G609G/G609G2) showing a significant increase of the median survival of mice upon Compound 2 treatment (+25%). Number of mice/group n=10."}, "[5]": {"target": "T1, NAT10 (Homo sapiens, UniProt Q9H0A0)", "T1 construct": "endogenous in cells; host or cells: U2OS", "T1 sequence (Q9H0A0 whole entry)": "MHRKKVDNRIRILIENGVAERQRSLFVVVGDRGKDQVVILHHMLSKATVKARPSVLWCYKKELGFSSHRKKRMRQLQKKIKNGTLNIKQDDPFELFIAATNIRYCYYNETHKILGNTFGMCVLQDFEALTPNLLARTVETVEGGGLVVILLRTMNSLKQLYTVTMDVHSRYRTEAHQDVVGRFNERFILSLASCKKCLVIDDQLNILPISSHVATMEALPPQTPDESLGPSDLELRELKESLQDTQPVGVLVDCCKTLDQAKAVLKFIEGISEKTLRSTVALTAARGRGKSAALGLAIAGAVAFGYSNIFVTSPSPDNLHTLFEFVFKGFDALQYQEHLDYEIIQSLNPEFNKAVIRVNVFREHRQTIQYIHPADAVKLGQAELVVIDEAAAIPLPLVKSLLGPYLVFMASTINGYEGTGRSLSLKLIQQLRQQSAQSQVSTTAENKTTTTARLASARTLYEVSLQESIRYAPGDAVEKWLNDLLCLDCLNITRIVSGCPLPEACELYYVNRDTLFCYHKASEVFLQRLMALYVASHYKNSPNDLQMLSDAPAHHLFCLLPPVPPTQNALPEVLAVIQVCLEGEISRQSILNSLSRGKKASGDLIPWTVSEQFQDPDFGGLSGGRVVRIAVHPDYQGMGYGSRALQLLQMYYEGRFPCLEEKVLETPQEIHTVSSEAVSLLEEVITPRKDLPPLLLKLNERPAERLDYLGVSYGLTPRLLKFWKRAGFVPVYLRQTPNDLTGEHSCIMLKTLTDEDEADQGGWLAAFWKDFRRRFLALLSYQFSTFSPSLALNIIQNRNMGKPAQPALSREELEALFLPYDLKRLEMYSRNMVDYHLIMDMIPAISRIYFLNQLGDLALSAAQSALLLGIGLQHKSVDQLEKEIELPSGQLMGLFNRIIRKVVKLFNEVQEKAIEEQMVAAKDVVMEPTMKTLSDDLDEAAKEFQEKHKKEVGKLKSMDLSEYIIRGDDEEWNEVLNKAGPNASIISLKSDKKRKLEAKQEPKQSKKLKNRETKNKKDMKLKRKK", "experiment": "Clickable small molecule pull-down from live cells, western blotting", "type": "binding", "details": "pre-incubated in live U2OS cells, biotin linker, streptavidin beads", "method": "Biotinylated Compound 3 and PEG4 biotinylated Compound A were generated in situ from Compounds 2 and 3, pre-incubated in live cells for 2 h prior to adding commercially available PEG4 carboxamide-6-azidohexanyl biotin and click reagents in cell extracts (used in click-pull-down and western blotting validation).\nClick reaction reagents were added to the cell lysates as follows: 10 μM biotin azide (PEG4 carboxamide-6-Azidohexanyl Biotin, Life Sciences), 10 mM sodium ascorbate (Sigma-Aldrich), 2 mM CuSO4 (Life Sciences). Click reactions were incubated in the dark for 1 hour at 4° C. with rotation. Streptavidin beads were then incubated for 1 hour and samples were eluted and loaded on a gel as described above, before immunoblotting."}}, "note": "Structures can show the parent of a compound that is named as a salt.", "data": [{"molecule": "N#Cc1ccc(-c2csc(NN=C3CCCC3)n2)cc1", "note": "[Compound 1, 4-(4-Cyanophenyl)-2-(2-cyclopentylidenehydrazinyl)thiazole]", "values": [{"measurement": "nuclear shape of normal cells", "setting": "[1]; cells that do not express Progerin", "value": "did not induce nuclear shape defects in normal human fibroblasts"}, {"measurement": "FTI-induced nuclear shape defects", "setting": "[1]; normal fibroblasts co-treated with FTI", "value": "prevented FTI-induced nuclear shape defects"}, {"measurement": "microtubule network organization", "setting": "[2]", "value": "striking reorganization"}]}, {"molecule": "Clc1ccc(-c2csc(NN=C3CCCC3)n2)cc1", "note": "[Compound 2, 4-(4-Chlorophenyl)-2-(2-cyclopentylidenehydrazinyl)thiazole Hydrochloride Salt]", "values": [{"measurement": "matrigel invasion of 22RV1 cells", "setting": "[3]", "value": "no invasion upon treatment"}, {"measurement": "increase of the median survival", "setting": "[4]", "value": "+25%"}]}, {"molecule": "C#CCN(N=C1CCCC1)c1nc(-c2ccc(Cl)cc2)cs1", "note": "[Compound 3, 4-(4-Chlorophenyl)-2-(2-cyclopentylidene-1-(prop-2-yn-1-yl)hydrazinyl)thiazole]", "values": [{"measurement": "retrieval of NAT10 in click pull-down", "setting": "[5]", "value": "specifically retrieved NAT10"}]}]}
